Measurements published in patent publication US20090111778A1, “2-Keto-Oxazoles as Modulators of Fatty Acid Amide Hydrolase” (priority 2005, published 2009).

Experiments:
rat FAAH = molecular target: T1, rat FAAH (Rattus norvegicus, UniProt P97612); experiment: Assay Method 2: FAAH assay, hydrolysis of 3H-anandamide by homogenate of SK-N-MC cells transfected with rat FAAH; assay type: biochemical; conditions: T84 or transfected SK-N-MC cell homogenate, 3H-AEA tracer 80 nM, rt 1 h, pH 9
T1 construct: expressed in transfected cells
T1 sequence (P97612 1-579): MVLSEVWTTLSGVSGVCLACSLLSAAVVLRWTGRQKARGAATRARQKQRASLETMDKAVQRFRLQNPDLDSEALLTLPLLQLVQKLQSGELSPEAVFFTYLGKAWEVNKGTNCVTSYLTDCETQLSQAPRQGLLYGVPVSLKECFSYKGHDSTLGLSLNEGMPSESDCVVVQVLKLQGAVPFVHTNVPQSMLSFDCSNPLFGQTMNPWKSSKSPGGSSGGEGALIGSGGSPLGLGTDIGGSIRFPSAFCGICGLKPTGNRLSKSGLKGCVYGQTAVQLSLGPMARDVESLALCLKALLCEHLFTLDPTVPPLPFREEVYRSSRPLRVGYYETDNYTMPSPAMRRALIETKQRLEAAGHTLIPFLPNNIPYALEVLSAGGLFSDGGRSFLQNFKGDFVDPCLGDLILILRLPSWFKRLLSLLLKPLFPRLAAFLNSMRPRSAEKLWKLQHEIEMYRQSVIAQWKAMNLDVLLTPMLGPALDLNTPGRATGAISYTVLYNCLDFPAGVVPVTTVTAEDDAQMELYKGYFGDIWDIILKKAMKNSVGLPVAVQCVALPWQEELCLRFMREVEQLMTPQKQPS
How it was run: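 Rat FAAH activity from homogenate of G418-selected, electroporated SK-N-MC clones was measured as release of radiolabelled ethanolamine from 3H-anandamide. After 1 h at rt, charcoal filtration retained substrate, and scintillation counting of the flow-through gave the read-out.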

human FAAH = molecular target: T2, human FAAH (Homo sapiens, UniProt O00519); experiment: Assay Method 1: FAAH assay, hydrolysis of 3H-anandamide by homogenate of SK-N-MC cells transfected with human FAAH; assay type: biochemical; conditions: human FAAH; T84 or transfected SK-N-MC cell homogenate; 3H-AEA tracer 80 nM; rt 1 h; pH 9; read-out: Assay 1 IC50
T2 construct: expressed in transfected cells
T2 sequence (O00519 1-579): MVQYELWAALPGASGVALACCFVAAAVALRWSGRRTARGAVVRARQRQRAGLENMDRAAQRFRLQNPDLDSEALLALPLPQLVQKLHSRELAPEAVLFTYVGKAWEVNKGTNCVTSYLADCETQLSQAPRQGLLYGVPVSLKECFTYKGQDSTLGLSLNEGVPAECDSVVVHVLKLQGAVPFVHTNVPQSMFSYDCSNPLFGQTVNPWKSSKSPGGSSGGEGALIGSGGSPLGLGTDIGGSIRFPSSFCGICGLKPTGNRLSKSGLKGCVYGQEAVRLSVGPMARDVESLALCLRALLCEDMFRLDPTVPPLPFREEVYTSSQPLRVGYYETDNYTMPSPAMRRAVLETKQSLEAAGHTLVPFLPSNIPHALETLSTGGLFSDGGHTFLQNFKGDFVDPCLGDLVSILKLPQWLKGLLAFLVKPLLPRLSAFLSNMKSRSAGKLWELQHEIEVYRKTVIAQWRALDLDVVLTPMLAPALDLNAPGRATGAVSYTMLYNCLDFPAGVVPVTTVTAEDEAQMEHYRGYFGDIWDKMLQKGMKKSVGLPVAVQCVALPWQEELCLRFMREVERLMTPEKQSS
How it was run: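 Homogenate of SK-N-MC cells stably expressing human FAAH (G418-selected clones) incubated with compound and 80 nM [1-3H-ethanolamine]anandamide for 1 h at rt. Released 3H-ethanolamine separated from substrate by activated-charcoal filtration, then counted by scintillation.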

IC50 (rat FAAH) [nM] | IC50 (human FAAH) [nM] | SMILES
23 | 12 | O=C(CCCC1CCN(Cc2cc3ccccc3nc2Cl)CC1)c1ncco1 [Example 97, 4-[1-(2-Chloro-quinolin-3-ylmethyl)-piperidin-4-yl]-1-oxazol-2-yl-butan-1-one]
7 | 0.4 | Cc1ccc2nc(Cl)c(CN3CCC(CCCC(=O)c4ncco4)CC3)cc2c1 [Example 98, 4-[1-(2-Chloro-6-methyl-quinolin-3-ylmethyl)-piperidin-4-yl]-1-oxazol-2-yl-butan-1-one]
8 | 5 | Cc1cccc2cc(CN3CCC(CCCC(=O)c4ncco4)CC3)c(Cl)nc12 [Example 99, 4-[1-(2-Chloro-8-methyl-quinolin-3-ylmethyl)-piperidin-4-yl]-1-oxazol-2-yl-butan-1-one]
11 | 30 | COc1ccc2nc(Cl)c(CN3CCC(CCCC(=O)c4ncco4)CC3)cc2c1 [Example 100, 4-[1-(2-Chloro-6-methoxy-quinolin-3-ylmethyl)-piperidin-4-yl]-1-oxazol-2-yl-butan-1-one]
44 | 23 | O=C(CCCC1CCN(Cc2ccc(C3CCCCC3)cc2)CC1)c1ncco1 [Example 101, 4-[1-(4-Cyclohexyl-benzyl)-piperidin-4-yl]-1-oxazol-2-yl-butan-1-one]
3000 | 530 | O=C(CCCC1CCN(Cc2ccc(N3CCCC3)cc2)CC1)c1ncco1 [Example 102, 1-oxazol-2-yl-4-[1-(4-pyrrolidin-1-yl-benzyl)-piperidin-4-yl]-butan-1-one]
250 | 108 | O=C(CCCC1CCN(Cc2ccc(N3CCCCC3)cc2)CC1)c1ncco1 [Example 103, 1-Oxazol-2-yl-4-[1-(4-piperidin-1-yl-benzyl)-piperidin-4-yl]-butan-1-one]
48 | 4 | COc1cccc(-c2ccc(CN3CCC(CCCC(=O)c4ncco4)CC3)cn2)c1 [Example 104, 4-{1-[6-(3-Methoxy-phenyl)-pyridin-3-ylmethyl]-piperidin-4-yl}-1-oxazol-2-yl-butan-1-one]
57 | 53 | O=C(CCCC1CCN(Cc2ccc(Oc3ccccc3)nc2)CC1)c1ncco1 [Example 105, 1-Oxazol-2-yl-4-[1-(6-phenoxy-pyridin-3-ylmethyl)-piperidin-4-yl]-butan-1-one]
2000 | 180 | O=C(CCCC1CCN(Cc2ccc(N3CCOCC3)nc2)CC1)c1ncco1 [Example 107, 4-[1-(6-Morpholin-4-yl-pyridin-3-ylmethyl)-piperidin-4-yl]-1-oxazol-2-yl-butan-1-one]
235 | 23 | O=C(CCCC1CCN(Cc2ccc(N3CCCCC3)nc2)CC1)c1ncco1 [Example 108, 1-oxazol-2-yl-4-[1-(3,4,5,6-tetrahydro-2H-[1,2′]bipyridinyl-5′-ylmethyl)-piperidin-4-yl]-butan-1-one]
528 | 55 | O=C(CCCC1CCN(Cc2ccc(-c3ccco3)nc2)CC1)c1ncco1 [Example 109, 4-[1-(6-Furan-2-yl-pyridin-3-ylmethyl)-piperidin-4-yl]-1-oxazol-2-yl-butan-1-one]
141 | 9 | O=C(CCCC1CCN(Cc2ccc(-c3cccs3)nc2)CC1)c1ncco1 [Example 110, 1-Oxazol-2-yl-4-[1-(6-thiophen-2-yl-pyridin-3-ylmethyl)-piperidin-4-yl]-butan-1-one]
193 | 15 | O=C(CCCC1CCN(Cc2ccc(-c3ccsc3)nc2)CC1)c1ncco1 [Example 111, 1-Oxazol-2-yl-4-[1-(6-thiophen-3-yl-pyridin-3-ylmethyl)-piperidin-4-yl]-butan-1-one]
174 | 14 | N#Cc1cccc(-c2ccc(CN3CCC(CCCC(=O)c4ncco4)CC3)cn2)c1 [Example 112, 3-{5-[4-(4-Oxazol-2-yl-4-oxo-butyl)-piperidin-1-ylmethyl]-pyridin-2-yl}-benzonitrile]
318 | 28 | O=C(CCCC1CCN(Cc2cc(F)ccc2F)CC1)c1ncco1 [Example 113, 4-[1-(2,5-Difluoro-benzyl)-piperidin-4-yl]-1-oxazol-2-yl-butan-1-one]

IC50 (rat FAAH) [nM] | IC50 (human FAAH) [nM] | SMILES
325 | 110 | O=C(CCCC1CCN(Cc2ccc(F)cc2F)CC1)c1ncco1 [Example 114, 4-[1-(2,4-Difluoro-benzyl)-piperidin-4-yl]-1-oxazol-2-yl-butan-1-one]
750 | 78 | O=C(CCCC1CCN(Cc2ccc(F)c(F)c2)CC1)c1ncco1 [Example 115, 4-[1-(3,4-Difluoro-benzyl)-piperidin-4-yl]-1-oxazol-2-yl-butan-1-one]
7000 | 370 | O=C(CCCC1CCN(Cc2ccc3cccnc3n2)CC1)c1ncco1 [Example 116, 4-(1-[1,8]Naphthyridin-2-ylmethyl-piperidin-4-yl)-1-oxazol-2-yl-butan-1-one]
277 | 175 | O=C(CCCC1CCN(Cc2cnc3ccccc3n2)CC1)c1ncco1 [Example 117, 1-Oxazol-2-yl-4-(1-quinoxalin-2-ylmethyl-piperidin-4-yl)-butan-1-one]
935 | 354 | O=C(CCCC1CCN(Cc2ccco2)CC1)c1ncco1 [Example 118, 4-(1-Furan-2-ylmethyl-piperidin-4-yl)-1-oxazol-2-yl-butan-1-one]
3 | 0.8 | CC(C)(C)OC(=O)N1CCC(CCCC(=O)c2ncc(-c3ccccn3)o2)CC1 [Example 119, 4-[4-Oxo-4-(5-pyridin-2-yl-oxazol-2-yl)-butyl]-piperidine-1-carboxylic acid tert-butyl ester]
21 | 2 | CC(C)(C)OC(=O)N1CCC(CCCC(=O)c2ncc(-c3ccco3)o2)CC1 [Example 120, 4-[4-(5-Furan-2-yl-oxazol-2-yl)-4-oxo-butyl]-Piperidine-1-carboxylic acid tert-butyl ester]
323 | 258 | O=C(CCCC1CCN(Cc2ccccc2)CC1)c1ncc(-c2ccco2)o1 [Example 121, 4-(1-Benzyl-piperidin-4-yl)-1-(5-furan-2-yl-oxazol-2-yl)-butan-1-one]
280 | 200 | O=C(CCCC1CCN(Cc2c(F)cc(F)cc2F)CC1)c1ncco1 [Example 123, 1-Oxazol-2-yl-4-[1-(2,4,6-trifluoro-benzyl)-piperidin-4-yl]-butan-1-one]
450 | 30 | O=C(CCCC1CCN(Cc2cc(F)cc(F)c2F)CC1)c1ncco1 [Example 124, 1-Oxazol-2-yl-4-[1-(2,3,5-trifluoro-benzyl)-piperidin-4-yl]-butan-1-one]
81 | 4 | O=C(CCCC1CCN(Cc2ccc3c(c2)OC(F)(F)O3)CC1)c1ncco1 [Example 125, 4-[1-(2,2-Difluoro-benzo[1,3]dioxol-5-ylmethyl)-piperidin-4-yl]-1-oxazol-2-yl-butan-1-one]
810 | 23 | CCCCCCCN1CCC(CCCC(=O)c2ncco2)CC1 [Example 126, 4-(1-Heptyl-piperidin-4-yl)-1-oxazol-2-yl-butan-1-one]
57 | 8 | CCCCCCCCCN1CCC(CCCC(=O)c2ncco2)CC1 [Example 127, 4-(1-Nonyl-Piperidin-4-yl)-1-oxazol-2-yl-butan-1-one]
19 | 30 | CC(C)(C)OC(=O)N1CCC(CCCC(=O)c2ncc(C(=O)O)o2)CC1 [Example 130, 4-[4-(5-Carboxy-oxazol-2-yl)-4-oxo-butyl]-piperidine-1-carboxylic acid tert-butyl ester]
760 | 88 | O=C(CCCC1CCN(Cc2cc(F)c(F)c(F)c2)CC1)c1ncco1 [Example 131, 1-Oxazol-2-yl-4-[1-(3,4,5-trifluoro-benzyl)-piperidin-4-yl]-butan-1-one]
